Literature values in patent publication US12642292B2, “Multi-compartment oral pouched product” (NICOVENTURES TRADING LIMITED, priority 2021, dated 2026).

Experiments:
[1] = for solubility in water / aqueous environment: for CBD aqueous environment (e.g., saliva)
[2] = when isolated; converts via isomerization into trans-bixin

| SMILES | solubility in water / aqueous environment [1] | chemical stability [2] | solubility in fats and alcohols ([1]; fats and alcohols) |
| --- | --- | --- | --- |
| CC(/C=C/C=C(C)/C=C/C(=O)O)=C\C=C\C=C(C)\C=C\C=C(C)\C=C\C(=O)O (stereo in doubt) [norbixin, (2E,4E,6E,8E,10E,12E,14E,16E,18E)-4,8,13,17-tetramethylicosa-2,4,6,8,10,12,14,16,18-nonaenedioic acid] | water soluble | – | – |
| C=C(C)[C@@H]1CCC(C)=C[C@H]1c1c(O)cc(CCCCC)cc1O [CBD, cannabidiol, reference compound] | insoluble in an aqueous environment | – | – |
| COC(=O)/C=C/C(C)=C\C=C\C(C)=C\C=C\C=C(C)\C=C\C=C(C)\C=C\C(=O)O [bixin] | insoluble in water | chemically unstable when isolated | soluble in fats and alcohols |
